Laboratory results published in US6559115B1, “Detergent tablet with high mechanical and dissolution characteristics” (The Procter & Gamble Company, priority 1998, dated 2003).

Legend:
[1] = Conductivity test defining a highly soluble compound; format: physicochemical; conditions: conductivity reaches 80% of maximum in less than 10 seconds
Experimental: A solution is prepared as follows comprising de-ionised water as well as 20 grams per liter of a specific compound:
1—20 g of the specific compound is placed in a Sotax Beaker. This beaker is placed in a constant temperature bath set at 10° C. A stirrer with a marine propeller is placed in the beaker so that the bottom of the stirrer is at 5 mm above the bottom of the Sotax beaker. The mixer is set at a rotation speed of 200 turns per minute.
2—980 g of the de-ionised water is introduced into the Sotax beaker.
3—10 s after the water introduction, the conductivity of the solution is measured, using a conductivity meter.
4—Step 3 is repeated after 20, 30, 40, 50, 1 min, 2 min, 5 min and 10 min after step 2.
5—The measurement taken at 10 min is used as the plateau value or maximum value.

[2] = Tablet compression and tensile strength (diametrical fracture stress); format: physicochemical; conditions: tensile strength increased by over 30% by 3% compound at compacting force 3000N
From the text: For the purpose of this invention, the Cohesive Effect on the particulate material of a detergent matrix is characterised by the force required to break a tablet based on the examined detergent matrix pressed under controlled compression conditions. […] Means to assess tablet strength (also refer to diametrical fracture stress) are given in Pharmaceutical dosage forms: tablets volume 1 Ed. H. A. Lieberman et al, published in 1989.
The temperature of the addition is between 10 and 80 C., more pref. between 10 and 40 C.
For a cylindrical tablet, the tensile strength corresponds to the diametrical fracture stress (DFS) which is a way to express the strength of a tablet, and is determined by the following equation: [formula]
Where F is the maximum force (Newton) to cause tensile failure (fracture) measured by a VK 200 tablet hardness tester supplied by Van Kell industries, Inc. D is the diameter of the tablet, and t the thickness of the tablet.
iii) Tablets were then made the following way: 50 g of the mixture was introduced into a mould of circular shape with a diameter of 5.5 cm and compressed to give a tablet tensile strength (or diametrical fracture stress) of 15 kPa. The force required to obtain a tablet tensile strength of 15 kPa was 2400 N. The tablet height was 1.94 cm.

Highly soluble compound according to the invention [1]: highly soluble
Cohesive effect on the particulate material [2]: having a cohesive effect
Substance: sodium di isoalkylbenzene sulphonate [Compounds of Example 1]
